Numbered stars: 1 amine (or outer) side, 2 acyl side, 3 side chain; on linkers, the order of the positions; unused ones are H or OH. Square brackets hold non-standard residues; d marks the D form. Peptide text beside a SMILES is read from it. * marks the point of attachment. Trimesoyl = O=C(c1cc(C(=O)[*:2])cc(C(=O)[*:3])c1)[*:1]; Thiophene2carbonyl = O=C(c1cccs1)*; 1Naphthoyl = O=C(c1cccc2ccccc12)*; Galloyl = O=C(c1cc(O)c(O)c(O)c1)*; Trx = NC[C@H]1CC[C@H](C(=O)O)CC1; 4Amb = NCc1ccc(C(=O)O)cc1; 4Abz = Nc1ccc(C(=O)O)cc1; Butyryl = CCCC(=O)*; Bz = O=C(c1ccccc1)*; X1 = CN(C)CCCC(=O)*; Ahx = NCCCCCC(=O)O; GABA = NCCCC(=O)O Bounds are passed on as bounds.

Broadly, the IC50 is the concentration needed to halve the response being measured.

The target of the first assay is T1, human P-selectin (Homo sapiens, UniProt P16109).
T1 construct: IgG-Fc (fusion partner); purchased R&D Systems Europe Ltd., Abingdon, United Kingdom
T1 sequence (P16109 with tags, fused parts or gaps limits assumed): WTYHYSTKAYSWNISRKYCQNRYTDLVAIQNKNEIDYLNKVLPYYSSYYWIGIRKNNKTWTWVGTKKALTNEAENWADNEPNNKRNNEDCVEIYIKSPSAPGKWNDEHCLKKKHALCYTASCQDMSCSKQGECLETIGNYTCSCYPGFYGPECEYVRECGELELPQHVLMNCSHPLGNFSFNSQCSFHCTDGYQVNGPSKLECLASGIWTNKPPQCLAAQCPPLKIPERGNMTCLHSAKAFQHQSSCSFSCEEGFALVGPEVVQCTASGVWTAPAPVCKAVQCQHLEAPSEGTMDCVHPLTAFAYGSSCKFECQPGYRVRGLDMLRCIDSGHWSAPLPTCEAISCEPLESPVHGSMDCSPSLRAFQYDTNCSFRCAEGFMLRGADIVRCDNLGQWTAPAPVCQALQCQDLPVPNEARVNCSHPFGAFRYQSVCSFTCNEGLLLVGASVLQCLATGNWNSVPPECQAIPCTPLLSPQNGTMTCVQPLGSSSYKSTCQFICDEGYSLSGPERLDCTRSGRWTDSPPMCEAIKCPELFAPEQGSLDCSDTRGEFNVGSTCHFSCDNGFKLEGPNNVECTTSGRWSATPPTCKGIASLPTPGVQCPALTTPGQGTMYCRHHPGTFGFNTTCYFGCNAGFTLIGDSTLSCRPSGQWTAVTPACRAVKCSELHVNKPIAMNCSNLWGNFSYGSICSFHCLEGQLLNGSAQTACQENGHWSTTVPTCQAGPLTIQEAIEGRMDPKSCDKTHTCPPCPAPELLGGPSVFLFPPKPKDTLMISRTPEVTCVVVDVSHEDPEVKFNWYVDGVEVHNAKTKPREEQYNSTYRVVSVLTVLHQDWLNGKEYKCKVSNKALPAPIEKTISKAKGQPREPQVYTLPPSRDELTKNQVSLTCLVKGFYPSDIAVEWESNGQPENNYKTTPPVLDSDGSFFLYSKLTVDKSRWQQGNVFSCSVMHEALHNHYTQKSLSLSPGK
The experiment in a line: Competition assay with TM11-PO (competition ELISA). Conditions: Table 1; derivatised peptides HPij; inhibition of TM11-PO binding to human P-selectin; read-out: IC50. The class given is binding. On the procedure:
Compounds according to the invention, as prepared in examples 1, 2 and 3 and some reference peptide compounds were assayed for its ability to inhibit TM11-PO binding to human P-selectin. […] For competition studies, a 96 wells microtiter plate (high binding, flat bottom, Costar, Corning, U.S.A.) was coated overnight at 4° C. with 10 μg/ml goat anti-human IgG (Fc specific) (Sigma-Aldrich, Zwijndrecht, the Netherlands) in coating buffer (50 mM NaHCO3, pH 9.6). Subsequently, wells were washed with assay buffer and incubated for 1 hour at 37° C. with blocking buffer (3% BSA in assay buffer). After washing with assay buffer, the wells were incubated for 2 hours at 37° C. with the human P-selectin IgG-Fc chimera (R&D Systems Europe Ltd., Abingdon, United Kingdom) (0.3 μg/ml). Subsequently, wells were washed with assay buffer and incubated for 1 hour at 4° C. with the TM11-PO complex. The wells were washed six times with washing buffer (0.1% Tween 20 in assay buffer). […] (TMB)/hydrogen peroxide (H2O2) (Pierce, Rochford, U.S.A.) was added and wells were incubated at room temperature for 15 minutes. The reaction was halted by addition of 2 M H2SO4 and the absorbance was measured at 450 nm.
On the technique in general: An ELISA detects its analyte on a solid surface through an enzyme-linked reagent.
In the case of `CC(C)[C@H](NC(=O)[C@H](CC(=O)O)NC(=O)[C@@H](NC(=O)[C@H](Cc1c[nH]c2ccccc12)NC(=O)[C@H](CCC(=O)O)NC(=O)c1cc(C(=O)O)cc(C(=O)O)c1)C(C)C)C(=O)N[C@@H](CCCCNC(=O)c1cc(O)c(O)c(O)c1)C(=O)NCCCC(=O)O` [HP16] (Trimesoyl-EWVDVK(Galloyl)[GABA]-OH), the IC50 is 0.31 µM.

Turning to `CC(C)[C@H](NC(=O)[C@H](CC(=O)O)NC(=O)[C@@H](NC(=O)[C@H](Cc1c[nH]c2ccccc12)NC(=O)[C@H](CCC(=O)O)NC(=O)c1cc(O)c(O)c(O)c1)C(C)C)C(=O)N[C@@H](CCCCNC(=O)c1cccs1)C(=O)NCCCC(=O)O` [HP63] (Galloyl-EWVDVK(Thiophene2carbonyl)[GABA]-OH), the IC50 turned out to be 3.4 µM.

Take `CC(C)[C@H](NC(=O)[C@H](CC(=O)O)NC(=O)[C@@H](NC(=O)[C@H](Cc1c[nH]c2ccccc12)NC(=O)[C@@H](N)CCC(=O)O)C(C)C)C(=O)N[C@@H](CCCCNC(=O)c1cc(O)c(O)c(O)c1)C(=O)NCCCC(=O)O` [HP06] (H-EWVDVK(Galloyl)[GABA]-OH): the IC50 came out at 6 µM.

In the case of `CC(C)[C@H](NC(=O)[C@H](CC(=O)O)NC(=O)[C@@H](NC(=O)[C@H](Cc1c[nH]c2ccccc12)NC(=O)[C@H](CCC(=O)O)NC(=O)c1cc(O)c(O)c(O)c1)C(C)C)C(=O)N[C@@H](CCCCNC(=O)c1cc(C(=O)O)cc(C(=O)O)c1)C(=O)NCCCC(=O)O` [HP61] (Galloyl-EWVDVK(Trimesoyl)[GABA]-OH), the half-maximal inhibitory concentration (IC50) was 0.19 µM.

With `CC(C)[C@H](NC(=O)[C@H](CC(=O)O)NC(=O)[C@@H](NC(=O)[C@H](Cc1c[nH]c2ccccc12)NC(=O)[C@H](CCC(=O)O)NC(=O)c1cc(O)c(O)c(O)c1)C(C)C)C(=O)N[C@@H](CCCCNC(=O)CCCN(C)C)C(=O)NCCCC(=O)O` [HP62] (Galloyl-EWVDVK(X1)[GABA]-OH), the half-inhibitory concentration (IC50) was found to be 0.28 µM.

Take `CCCC(=O)NCCCC[C@H](NC(=O)[C@@H](NC(=O)[C@H](CC(=O)O)NC(=O)[C@@H](NC(=O)[C@H](Cc1c[nH]c2ccccc12)NC(=O)[C@H](CCC(=O)O)NC(=O)c1cc(O)c(O)c(O)c1)C(C)C)C(C)C)C(=O)NCCCC(=O)O` [HP65] (Galloyl-EWVDVK(Butyryl)[GABA]-OH): the IC50 is 2.35 µM.

In the case of `CC(C)[C@H](NC(=O)[C@H](CC(=O)O)NC(=O)[C@@H](NC(=O)[C@H](Cc1c[nH]c2ccccc12)NC(=O)[C@H](CCC(=O)O)NC(=O)c1cc(C(=O)O)cc(C(=O)O)c1)C(C)C)C(=O)N[C@@H](CCCCNC(=O)c1cccc2ccccc12)C(=O)NCCCC(=O)O` [HP14] (Trimesoyl-EWVDVK(1Naphthoyl)[GABA]-OH), the IC50 was 1.02 µM.

On to `CC(C)[C@H](NC(=O)[C@H](CC(=O)O)NC(=O)[C@@H](NC(=O)[C@H](Cc1c[nH]c2ccccc12)NC(=O)[C@H](CCC(=O)O)NC(=O)c1cc(C(=O)O)cc(C(=O)O)c1)C(C)C)C(=O)N[C@@H](CCCCNC(=O)c1ccccc1)C(=O)NCCCC(=O)O` [HP17] (Trimesoyl-EWVDVK(Bz)[GABA]-OH), for which the concentration for half-maximal inhibition (IC50) came to 0.45 µM.

With `CC(C)[C@H](NC(=O)[C@H](CC(=O)O)NC(=O)[C@@H](NC(=O)[C@H](Cc1c[nH]c2ccccc12)NC(=O)[C@H](CCC(=O)O)NC(=O)c1cc(O)c(O)c(O)c1)C(C)C)C(=O)N[C@@H](CCCCN)C(=O)NCCCC(=O)O` [HP60] (Galloyl-EWVDVK[GABA]-OH), the IC50 was determined as 1.1 µM.

The assay is the same for the next values; noted with them: Table 2; average of at least 3 experiments at 8 concentrations, TM11-PO competition ELISA; read-out: IC50 for human P-selectin as determined by competition Elisa.
With `CC(C)[C@H](NC(=O)[C@H](CC(=O)O)NC(=O)[C@@H](NC(=O)[C@H](Cc1c[nH]c2ccccc12)NC(=O)c1cc(O)c(O)c(O)c1)C(C)C)C(=O)O` [Peptide 12, GA-WVDV] (Galloyl-WVDV-OH), the IC50 was determined as 0.037 µM.

The same assay, now with this note: Table 3; gallic acid derivatized peptides; mean of at least 3 experiments at 8 concentrations; read-out: IC50 for human P-selectin as determined by competition Elisa.
Regarding `CC(C)[C@H](NC(=O)[C@H](CC(=O)O)NC(=O)[C@@H](NC(=O)[C@H](Cc1c[nH]c2ccccc12)NC(=O)[C@H]1CC[C@H](CNC(=O)c2cc(O)c(O)c(O)c2)CC1)C(C)C)C(=O)O` [Peptide 33] ({Galloyl-Trx}-WVDV-OH), the IC50 turned out to be 0.58 µM.

For `CC(C)[C@H](NC(=O)[C@H](CC(=O)O)NC(=O)[C@@H](NC(=O)[C@H](Cc1c[nH]c2ccccc12)NC(=O)c1cc(O)c(O)c(O)c1)C(C)C)C(=O)O` [Peptide 12, GA-WVDV] (Galloyl-WVDV-OH), the IC50 was found to be 0.0371 µM.

Regarding `CC(C)[C@H](NC(=O)[C@H](CC(=O)O)NC(=O)[C@@H](NC(=O)[C@H](Cc1c[nH]c2ccccc12)NC(=O)CCCNC(=O)c1cc(O)c(O)c(O)c1)C(C)C)C(=O)O` [Peptide 28] ({Galloyl-GABA}-WVDV-OH), the IC50 worked out at 0.0154 µM.

`CC(C)[C@H](NC(=O)[C@H](CC(=O)O)NC(=O)[C@@H](NC(=O)[C@H](Cc1c[nH]c2ccccc12)NC(=O)[C@@H]1CCCN1C(=O)c1cc(O)c(O)c(O)c1)C(C)C)C(=O)O` [Peptide 30] (Galloyl-PWVDV-OH): the IC50 came to 0.25 µM.

Take `CC(C)[C@H](NC(=O)[C@H](CC(=O)O)NC(=O)[C@@H](NC(=O)[C@H](Cc1c[nH]c2ccccc12)NC(=O)c1ccc(NC(=O)c2cc(O)c(O)c(O)c2)cc1)C(C)C)C(=O)O` [Peptide 31] ({Galloyl-4Abz}-WVDV-OH): the 50% inhibitory concentration (IC50) is greater than 1 µM.

Take `CC(C)[C@H](NC(=O)[C@H](CC(=O)O)NC(=O)[C@@H](NC(=O)[C@H](Cc1c[nH]c2ccccc12)NC(=O)c1ccc(CNC(=O)c2cc(O)c(O)c(O)c2)cc1)C(C)C)C(=O)O` [Peptide 32] ({Galloyl-4Amb}-WVDV-OH): the IC50 came to 0.59 µM.

In the case of `CC(C)[C@H](NC(=O)[C@H](CC(=O)O)NC(=O)[C@@H](NC(=O)[C@H](Cc1c[nH]c2ccccc12)NC(=O)CNC(=O)c1cc(O)c(O)c(O)c1)C(C)C)C(=O)O` [Peptide 27] (Galloyl-GWVDV-OH), the half-maximal inhibitory concentration (IC50) is 0.0183 µM.

On to `CC(C)[C@H](NC(=O)[C@H](CC(=O)O)NC(=O)[C@@H](NC(=O)[C@H](Cc1c[nH]c2ccccc12)NC(=O)CCCCCNC(=O)c1cc(O)c(O)c(O)c1)C(C)C)C(=O)O` [Peptide 29] ({Galloyl-Ahx}-WVDV-OH), for which the IC50 turned out to be 0.0629 µM.

Another assay deals with T2, P-selectin (Homo sapiens, UniProt P16109).
T2 sequence (P16109 42-830): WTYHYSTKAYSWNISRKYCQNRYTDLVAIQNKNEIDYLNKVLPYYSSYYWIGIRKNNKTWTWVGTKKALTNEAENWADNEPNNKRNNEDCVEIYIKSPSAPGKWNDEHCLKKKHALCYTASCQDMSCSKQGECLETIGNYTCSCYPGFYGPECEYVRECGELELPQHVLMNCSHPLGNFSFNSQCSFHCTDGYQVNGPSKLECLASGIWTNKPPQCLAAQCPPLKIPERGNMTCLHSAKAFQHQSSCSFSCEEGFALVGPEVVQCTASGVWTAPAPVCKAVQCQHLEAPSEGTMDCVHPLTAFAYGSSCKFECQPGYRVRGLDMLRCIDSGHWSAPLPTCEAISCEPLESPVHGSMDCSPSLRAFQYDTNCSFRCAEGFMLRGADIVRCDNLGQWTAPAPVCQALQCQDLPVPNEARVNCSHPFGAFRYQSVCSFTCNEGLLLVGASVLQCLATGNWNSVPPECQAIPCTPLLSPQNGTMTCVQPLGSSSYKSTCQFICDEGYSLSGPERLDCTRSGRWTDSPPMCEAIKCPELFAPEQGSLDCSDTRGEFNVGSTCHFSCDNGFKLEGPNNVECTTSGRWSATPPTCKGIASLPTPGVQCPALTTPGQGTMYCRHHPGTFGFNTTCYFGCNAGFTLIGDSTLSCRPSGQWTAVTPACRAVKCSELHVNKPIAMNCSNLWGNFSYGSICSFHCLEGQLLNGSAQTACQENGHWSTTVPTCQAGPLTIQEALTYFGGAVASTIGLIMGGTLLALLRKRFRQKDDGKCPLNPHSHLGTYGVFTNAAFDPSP
Test: not given
Conditions: described in European patent application No. 01203314.8; read-out: affinity for P-selectin, IC50; cited from earlier work.
EWVDV [Peptide A29]: the IC50 was roughly 2 µM.

A further assay concerns the target T1, human P-selectin.
Test: not given
Conditions: Table 2; values marked b, from not pre-published European patent application 01203314.8; read-out: IC50 for human P-selectin as determined by competition Elisa; cited from earlier work.
Regarding CDVEWVDVSSLEWDLPC [TM11], the IC50 was 2 µM.

For the compound DWVDV [Peptide A129], the IC50 is 16 µM.

For EWVDV [Peptide A29], the IC50 is 8 µM.

WVDV [Peptide A138]: the IC50 was greater than 1000 µM.

In the case of AWVDV [Peptide A131], the half-inhibitory concentration (IC50) was 27 µM.

For KWVDV [Peptide A130], the IC50 was 28 µM.

The record behind these values is patent US20060217294A1, “Compounds binding to p-selectin” (YAMANOUCHI EUROPE B.V., priority 2002, published 2006).
